Experimental data as given in PubChem BioAssay (NCI).
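GI50 is the concentration that inhibits growth by half. At the TGI there is no net growth.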

Legend:
Experiment in all cases: NCI-60 cell line screen, 384-well format
[1] = test system: NCI-H322M lung
[2] = test system: MDA-MB-231 breast
[3] = test system: PC-3 prostate
[4] = test system: SW-620 colon
[5] = test system: A549 NSCLC
[6] = test system: HOP-62 NSCLC
[7] = test system: RXF 393 renal
[8] = test system: HS 578T breast
[9] = test system: OVCAR-8 ovarian
[10] = test system: HCT-116 colon
[11] = test system: A498 renal
[12] = test system: HOP-92 NSCLC
[13] = test system: EKVX NSCLC
[14] = test system: ACHN renal
[15] = test system: DU-145 prostate
[16] = test system: HT29 colon
[17] = test system: MALME-3M melanoma
[18] = test system: OVCAR-3 ovarian
[19] = test system: HL-60(TB) leukemia
[20] = test system: HCC-2998 colon
[21] = test system: SN12C renal
[22] = test system: M14 melanoma
[23] = test system: SF-295 CNS
[24] = test system: SF-539 CNS
[25] = test system: NCI-H23 lung
[26] = test system: SNB-19 CNS
[27] = test system: TK-10 renal
[28] = test system: MOLT-4 leukemia
[29] = test system: SNB-75 CNS
[30] = test system: IGROV1 ovarian
[31] = test system: CAKI-1 renal
[32] = test system: OVCAR-4 ovarian
[33] = test system: K-562 leukemia
[34] = test system: HCT-15 colon
[35] = test system: CCRF-CEM leukemia
[36] = test system: BT-549 breast
[37] = test system: SK-MEL-28 melanoma
[38] = test system: KM12 colon
[39] = test system: UACC-257 melanoma
[40] = test system: NCI/ADR-RES ovarian
[41] = test system: NCI-H226 lung
[42] = test system: UO-31 renal
[43] = test system: COLO 205 colon
[44] = test system: LOX IMVI melanoma
[45] = test system: SK-OV-3 ovarian
[46] = test system: MDA-MB-468 breast
[47] = test system: SF-268 CNS
[48] = test system: SR leukemia

O=C(O)C1(Cc2cccc(Nc3nccs3)n2)CCC(Oc2cccc(Cl)c2F)CC1 (stereo unspecified)
GI50 [1]: 16.5 µM
TGI [1]: 32.6 µM
GI50 [2]: 11.7 µM
TGI [2]: 31.3 µM
GI50 [3]: 11.7 µM
TGI [3]: 24.7 µM
GI50 [4]: 1.2 µM
TGI [4]: 19.9 µM
GI50 [5]: 8.56 µM
TGI [5]: 24.2 µM
GI50 [6]: 1.89 µM
TGI [6]: 20.2 µM
GI50 [7]: 0.358 µM
TGI [7]: 12.3 µM
GI50 [8]: 0.0962 µM
TGI [8]: 17.9 µM
GI50 [9]: 0.46 µM
TGI [9]: 20.3 µM
GI50 [10]: 0.0796 µM
TGI [10]: 17.6 µM
GI50 [11]: 11.6 µM
TGI [11]: 25 µM
GI50 [12]: 10.4 µM
TGI [12]: 22.9 µM
GI50 [13]: 10.1 µM
TGI [13]: 24.5 µM
GI50 [14]: 14.6 µM
TGI [14]: 48.9 µM
GI50 [15]: 10.7 µM
TGI [15]: 26.2 µM
GI50 [16]: 4.21 µM
TGI [16]: 17.1 µM
GI50 [17]: 18.2 µM
TGI [17]: 37.4 µM
GI50 [18]: 0.41 µM
TGI [18]: 18.2 µM
GI50 [19]: 0.397 µM
TGI [19]: 1.53 µM
GI50 [20]: 16 µM
TGI [20]: 29.7 µM
GI50 [21]: 11.1 µM
TGI [21]: 26.4 µM
GI50 [22]: 0.381 µM
TGI [22]: 21.4 µM
GI50 [23]: 2.02 µM
TGI [23]: 23.4 µM
GI50 [24]: 3.09 µM
TGI [24]: 20.6 µM
GI50 [25]: 0.562 µM
TGI [25]: 20.8 µM
GI50 [26]: 12.1 µM
TGI [26]: 29.6 µM
GI50 [27]: 13.3 µM
TGI [27]: 31.3 µM
GI50 [28]: 0.0886 µM
TGI [28]: 1.05 µM
GI50 [29]: 0.972 µM
TGI [29]: 28.5 µM
GI50 [30]: 13.4 µM
TGI [30]: 27.6 µM
GI50 [31]: 11.3 µM
TGI [31]: 25.5 µM
GI50 [32]: 16.6 µM
TGI [32]: 58.5 µM
GI50 [33]: 0.313 µM
TGI [33]: 1.27 µM
GI50 [34]: 5.24 µM
TGI [34]: 21.3 µM
GI50 [35]: 0.249 µM
TGI [35]: 1.1 µM
GI50 [36]: 0.573 µM
TGI [36]: 22.3 µM
GI50 [37]: 15.7 µM
TGI [37]: 61.1 µM
GI50 [38]: 0.124 µM
TGI [38]: 16.1 µM
GI50 [39]: 19.6 µM
TGI [39]: 54.5 µM
GI50 [40]: 0.329 µM
TGI [40]: 13.3 µM
GI50 [41]: 3.06 µM
TGI [41]: 20.1 µM
GI50 [42]: 14 µM
TGI [42]: 27.7 µM
GI50 [43]: 0.609 µM
TGI [43]: 21.7 µM
GI50 [44]: 10.3 µM
TGI [44]: 22.1 µM
GI50 [45]: 11.5 µM
TGI [45]: 26.3 µM
GI50 [46]: 0.122 µM
TGI [46]: 0.288 µM
GI50 [47]: 0.3 µM
TGI [47]: 28 µM
GI50 [48]: 0.0417 µM
TGI [48]: 0.105 µM
